According to PMC9229949 (Pharmaceutics, 2022):

Assays:
[1] = target: T1, S. mansoni thioredoxin-glutathione reductase (SmTGR) (Schistosoma mansoni, UniProt Q962Y6); assay: Inhibition of enzymatic activity of recombinant S. mansoni thioredoxin glutathione reductase; assay type: biochemical; conditions: 15 min preincubation, mean of one experiment, read-out: IC50 for TrxRs, S. mansoni (Sec)
T1 construct: made in house
T1 sequence (Q962Y6 1-598): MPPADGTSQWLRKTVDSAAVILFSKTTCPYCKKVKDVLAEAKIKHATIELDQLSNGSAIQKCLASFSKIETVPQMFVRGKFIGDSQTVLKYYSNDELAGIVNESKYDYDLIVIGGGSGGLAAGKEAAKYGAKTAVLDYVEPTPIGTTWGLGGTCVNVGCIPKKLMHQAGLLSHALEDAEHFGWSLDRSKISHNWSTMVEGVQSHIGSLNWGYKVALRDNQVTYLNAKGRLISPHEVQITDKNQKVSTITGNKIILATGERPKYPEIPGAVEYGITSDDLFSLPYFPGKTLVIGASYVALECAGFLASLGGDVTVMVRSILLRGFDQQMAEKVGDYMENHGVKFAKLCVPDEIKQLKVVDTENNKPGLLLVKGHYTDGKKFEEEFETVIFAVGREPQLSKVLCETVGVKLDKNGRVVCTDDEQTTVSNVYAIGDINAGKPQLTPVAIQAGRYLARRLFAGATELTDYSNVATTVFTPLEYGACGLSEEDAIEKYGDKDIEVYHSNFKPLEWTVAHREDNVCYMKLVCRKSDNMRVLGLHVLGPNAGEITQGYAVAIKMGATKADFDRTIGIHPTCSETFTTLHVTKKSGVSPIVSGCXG
Description: (§1) The codon-optimized sequence for PfTrxR [27, 28] was synthesized and subcloned into pET-15b (Genscript) and expressed and purified as for human glutathione reductase (hGR). Recombinant Schistosoma mansoni (S. mansoni) thioredoxin glutathione reductase (SmTGR), human TrxR (hTrxR), and hGR proteins were expressed and purified as described. TrxR and TGR enzyme inhibition assays were performed in triplicate at 25 °C in 0.1 M potassium phosphate (pH 7.4), 10 mM EDTA, 100 µM NADPH and 0.01% Tween-20. SmTGR (4 nM), hTrxR (4 nM), and PfTrxR (50 nM) were preincubated with the compounds for 15 min. The reaction was started with addition of an equal volume of 5,5′-dithiobis(2-nitrobenzoic acid) (6 mM) and NADPH (100 µM). The increase in A412 during the first 3 min was recorded. […]. The reactions were performed in triplicate. The IC50s were calculated in Prism version 5.01.

[2] = target: T2, human glutathione reductase (hGR) (Homo sapiens, UniProt P00390); assay: Inhibition of enzymatic activity of recombinant human glutathione reductase; assay type: biochemical; conditions: recombinant enzyme, 15 min preincubation; mean of one experiment; read-out: IC50, Human GR
T2 construct: made in house
T2 sequence (P00390 44-522): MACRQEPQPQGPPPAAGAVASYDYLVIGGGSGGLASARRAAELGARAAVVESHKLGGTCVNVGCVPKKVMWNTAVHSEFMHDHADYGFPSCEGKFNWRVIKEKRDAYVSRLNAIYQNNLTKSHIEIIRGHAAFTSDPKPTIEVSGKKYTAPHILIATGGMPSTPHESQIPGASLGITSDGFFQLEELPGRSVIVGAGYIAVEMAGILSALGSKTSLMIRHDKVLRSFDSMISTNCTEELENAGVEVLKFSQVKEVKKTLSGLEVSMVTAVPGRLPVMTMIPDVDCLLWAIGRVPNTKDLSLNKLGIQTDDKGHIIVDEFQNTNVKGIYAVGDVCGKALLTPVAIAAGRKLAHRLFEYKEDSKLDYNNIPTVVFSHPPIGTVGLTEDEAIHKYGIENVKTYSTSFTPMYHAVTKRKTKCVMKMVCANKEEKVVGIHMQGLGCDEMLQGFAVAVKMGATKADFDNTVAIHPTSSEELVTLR
Description: as §1

[3] = system: P. falciparum 3D7 (CQ-susceptible) asexual blood stages; set-up: method as in PMID 29465117; conditions: in vitro antiplasmodial activity; read-out: P. falciparum 3D7 (Cell Based Activity), IC50; cited from earlier work
human TrxR (hTrxR) = target: T3, human TrxR (hTrxR) (Homo sapiens, UniProt Q16881); assay: Inhibition of enzymatic activity of recombinant human TrxR; assay type: biochemical; conditions: recombinant enzyme, 15 min preincubation; mean of one experiment; read-out: IC50 for TrxRs, Human (Sec)
T3 construct: made in house
T3 sequence (Q16881 151-649 limits assumed): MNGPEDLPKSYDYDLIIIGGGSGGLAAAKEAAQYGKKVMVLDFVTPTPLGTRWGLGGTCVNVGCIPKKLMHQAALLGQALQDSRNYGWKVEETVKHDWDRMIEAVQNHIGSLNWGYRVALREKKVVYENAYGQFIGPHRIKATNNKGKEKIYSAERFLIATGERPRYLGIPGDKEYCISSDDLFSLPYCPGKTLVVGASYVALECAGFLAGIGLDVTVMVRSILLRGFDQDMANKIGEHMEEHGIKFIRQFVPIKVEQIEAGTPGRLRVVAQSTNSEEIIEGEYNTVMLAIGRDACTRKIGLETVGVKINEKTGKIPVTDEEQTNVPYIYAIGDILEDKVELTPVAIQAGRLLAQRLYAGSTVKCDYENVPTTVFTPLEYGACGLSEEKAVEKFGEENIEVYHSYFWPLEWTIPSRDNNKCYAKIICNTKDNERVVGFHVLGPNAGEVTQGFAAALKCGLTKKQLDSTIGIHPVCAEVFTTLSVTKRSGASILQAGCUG
Description: as §1

PfTrxR = target: T4, PfTrxR (Plasmodium falciparum, UniProt Q25861); assay: Inhibition of enzymatic activity of recombinant P. falciparum TrxR; assay type: biochemical; conditions: recombinant enzyme, 15 min preincubation; mean of one experiment; read-out: IC50 for TrxRs, P. falciparum (Cys)
T4 construct: made in house
T4 sequence (Q25861 1-541): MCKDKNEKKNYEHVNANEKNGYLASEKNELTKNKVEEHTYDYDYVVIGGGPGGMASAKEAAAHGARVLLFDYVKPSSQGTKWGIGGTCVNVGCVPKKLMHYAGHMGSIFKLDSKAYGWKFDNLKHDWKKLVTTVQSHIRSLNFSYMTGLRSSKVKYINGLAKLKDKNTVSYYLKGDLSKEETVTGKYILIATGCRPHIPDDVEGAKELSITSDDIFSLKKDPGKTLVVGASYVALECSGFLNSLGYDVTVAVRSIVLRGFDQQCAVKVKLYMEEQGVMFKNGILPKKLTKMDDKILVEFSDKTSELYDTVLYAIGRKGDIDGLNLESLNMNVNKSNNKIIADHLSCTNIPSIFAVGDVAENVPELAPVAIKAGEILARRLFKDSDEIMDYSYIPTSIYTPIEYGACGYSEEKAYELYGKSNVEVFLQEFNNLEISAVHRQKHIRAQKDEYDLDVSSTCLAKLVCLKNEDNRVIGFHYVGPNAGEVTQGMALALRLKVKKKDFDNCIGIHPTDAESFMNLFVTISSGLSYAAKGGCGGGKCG
Description: as §1

In the case of CC(=O)OC[C@H]1O[C@@H]([S-])[C@H](OC(C)=O)[C@@H](OC(C)=O)[C@@H]1OC(C)=O.CCP(CC)CC.[Au+] [Auranofin, auranofin], the IC50 [1] is listed as 7 nM, the IC50 [2] is listed as 40 µM and the IC50 [3] is listed as 60 nM. It also gave an IC50 (human TrxR (hTrxR)) of 20 nM and an IC50 (PfTrxR) of 62 nM.
